Reference: patent US7282512B2, “Cycloalkyl ketoamides derivatives useful as cathepsin K inhibitors” (SmithKline Beecham Corporation, priority 2002, dated 2007)
Read-outs that look alike come from different tables or passages of the source.

Biological target: T1, human cathepsin K (Homo sapiens, UniProt P43235)
T1 construct: The proform of cathepsin K was converted to mature cathepsin K by brief exposure to pH 4; made in house; host or cells: baculovirus; Trichoplusia ni High Five cells (virus raised in Sf-9)
T1 sequence (P43235 115-329): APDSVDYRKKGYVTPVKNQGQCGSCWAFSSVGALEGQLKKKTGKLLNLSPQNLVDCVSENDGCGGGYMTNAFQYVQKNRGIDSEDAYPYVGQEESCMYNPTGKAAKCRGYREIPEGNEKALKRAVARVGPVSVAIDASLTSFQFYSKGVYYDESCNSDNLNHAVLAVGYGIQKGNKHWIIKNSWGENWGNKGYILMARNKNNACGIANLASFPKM
Experiment: cathepsin K inhibition assay, fluorogenic substrate Cbz-Phe-Arg-AMC, progress curve method
Assay type: biochemical
Settings: human recombinant enzyme, 10 μM substrate
Protocol: All assays for cathepsin K were carried out with human and rat recombinant enzyme. Assays for cathepsins S & V were also carried out with human recombinant enzyme. Assays for human cathepsins B, H, and L were carried out with enzyme, purchased from Athens Research and Technology, Inc., prepared from human liver tissue. […] A stock substrate solution of Cbz-Phe-Arg-AMC was prepared at a concentration of 50 mM in dimethyl sulfoxide. This substrate was diluted into the assay for a final substrate concentration of 10 μM in the rat cathepsin K, human cathepsin K, and human cathepsin B assays; a final substrate concentration of 5 μM in the human cathepsin L assay; and a final substrate concentration of 2 μM in the human cathepsin V assay.
All assays contained 10% dimethyl sulfoxide. […] All assays were conducted at 30° C. Product fluorescence (excitation at 360 nm; emission at 440 nm, (except cathepsin H which used excitation at 340 nm; emission at 420 nm)) was monitored with a PerSeptive Biosystems Cytofluor II fluorescence plate reader. Product progress curves were generated over 2.3 h monitoring the formation of 7-amino-4-methylcoumarin product (or β-naphthalamide for cathepsin H).
Two liters of Spodoptera frugiperda (Sf-9) cells (ATCC) were grown in Grace's Supplemented medium (Life Technologies) supplemented with 2 g/L glucose, 10% fetal bovine serum (HyClone) and 0.1% pluronic F-68 (Life Technologies). […] The cells continued to grow for 72 h post-infection, before the virus was harvested by centrifugation at 1400×g for 30 min.
One and one-half liters of Trichoplusia ni (T. ni) High Five (™) cells [JRH Biosciences, Woodland, Calif. […] Media were separated from cells at a rate of 1 L/min using the Centritech 100 (™) continuous-flow centrifuge (DuPont) operating at 200×g.
Protein Purification: Media (human and rat) were filtered through a Whatman 3 filter, and then loaded onto a 25 mL Poros HS II (26 mm×47 mm) cation exchange column equilibrated in 25 mM sodium acetate at pH 5.5 (equilibration buffer). The column was washed until the absorbance reached the baseline value, and then the protein was eluted with a linear gradient from 0-2 M sodium chloride in the equilibration buffer. Column fractions were analyzed by SDS-PAGE, N-terminal sequencing, and mass spectrometry. Fractions containing the proform of cathepsin K were pooled and frozen at −80° C. The proform was concentrated in an Amicon Centriprep 10 and fractionated with a Superdex 75 column (26 mm×600 mm, Pharmacia) equilibrated in 400 mM sodium chloride, 25 mM sodium acetate at pH 5.5.
Cathepsin K Activation: The proform of cathepsin K was converted to mature cathepsin K by brief exposure to pH 4 in the presence of 5 mM L-cysteine. Typically, 5 mM L-cysteine was added to 10 mL of approximately 1 mg/mL procathepsin K. One mL of this solution was diluted ten-fold into 450 mM sodium acetate at pH 4.0 containing 5 mM L-cysteine. This solution was reacted at 23° C. for 2 min before neutralization with 2 mL 1.8 M sodium acetate at pH 6.0. The neutralized sample was added to the remaining 9 mL of procathepsin K. The mixture was incubated at 4° C. for 2-3 days. The activated cathepsin K was chromatographed on a Poros HS II column as described above.
Potential inhibitors were evaluated using the progress curve method. Assays were carried out in the presence of variable concentrations of test compound. Reactions were initiated by addition of buffered solutions of inhibitor and substrate to enzyme. Data analysis was conducted according to one of two procedures depending on the appearance of the progress curves in the presence of inhibitors. […] Ki values were calculated from IC50 values using equation 2 assuming a competitive model.

[1] = Table 1, pH 5.5, 30° C., read-out: hcatK Ki

Row | Ki [1] | Ki (Table 2, read-out: hCat K Ki) | SMILES
1 | 10 to 100 nM | 10 to 100 nM | CCCC[C@H](NC(=O)OC1(Cc2ccccc2)CCCC1)C(=O)C(=O)N[C@@H](C)C(=O)OCc1ccccc1 [Example 3, Benzyl (2S)-2-{[(3S)-3-({[(1-benzylcyclopentyl)oxy]carbonyl}amino)-2-oxoheptanoyl]amino}propanoate]
2 | < 1 nM | < 1 nM | CCCC[C@H](NC(=O)OCC1(Cc2ccc(F)cc2)CCC1)C(=O)C(=O)Nc1n[nH]c2cc(Cl)ccc12 [Example 15, [1-(4-fluorobenzyl)cyclobutyl]methyl(1S)-1-[[(6-chloro-1H-indazol-3-yl)amino](oxo)acetyl]pentylcarbamate]
3 | 1 to 10 nM | 1 to 10 nM | CCCC[C@H](NC(=O)OC1(c2nc3ccccc3s2)CCCC1)C(=O)C(=O)Nc1ccn[nH]1 [Example 17, 1-(1,3-Benzothiazol-2-yl)cyclopentyl(1S)-1-[oxo(1H-pyrazol-3-ylamino)acetyl]pentylcarbamate]
